What was measured:
Type in all cases: in vivo, female Sprague Dawley rats
Serum cholesterol = Serum cholesterol in ovariectomized rats, 4-day oral dosing (Table 1); details: Rattus norvegicus, po, 96 h, OVX rats, daily for 4 days; for inhibition in vivo at 1 mg/kg: 1 mg/kg oral; for inhibition in vivo at 1 mg/kg / inhibition in vivo at 10 mg/kg / inhibition in vivo at 25 mg/kg / inhibition in vivo at 0.1 mg/kg: read-out: Serum Cholesterol (% dec. vs. OVX); for inhibition in vivo at 10 mg/kg: 10 mg/kg oral; for inhibition in vivo at 25 mg/kg: 25 mg/kg oral; for ED50: oral, dose column in mg/kg, read-out: ED50 (effective dose to dec. serum chol. by 50%); for inhibition in vivo at 0.1 mg/kg: 0.1 mg/kg oral
From the text: (§1) Seventy-five day old female Sprague Dawley rats (weight range of 200 to 225 g) were obtained from Charles River Laboratories (Portage, Mich.). The animals were either bilaterally ovariectomized (OVX) or exposed to a sham surgical procedure at Charles River Laboratories, and then shipped after one week. Upon arrival, they were housed in metal hanging cages in groups of 3 or 4 per cage and had ad libitum access to food (calcium content approximately 0.5%) and water for one week. Room temperature was maintained at 22.2° ±1.7° C. with a minimum relative humidity of 40%. The photoperiod in the room was 12 hours light and 12 hours dark.
(§2) Dosing Regimen Tissue Collection. After a one week acclimation period (therefore, two weeks post-OVX) daily dosing with test compound was initiated. 17α-ethynyl estradiol or the test compound were given orally, unless otherwise stated, as a suspension in 1% carboxymethylcellulose or dissolved in 20% cyclodextrin. Animals were dosed daily for 4 days. Following the dosing regimen, animals were weighed and anesthetized with a ketamine: Xylazine (2:1, V:V) mixture and a blood sample was collected by cardiac puncture. The animals were then sacrificed by asphyxiation with CO2, the uterus was removed through a midline incision, and a wet uterine weight was determined.
Cholesterol Analysis. Blood samples were allowed to clot at room temperature for 2 hours, and serum was obtained following centrifugation for 10 minutes at 3000 rpm. Serum cholesterol was determined using a Boehringer Mannheim Diagnostics high performance cholesterol assay. Briefly the cholesterol was oxidized to cholest-4-en-3-one and hydrogen peroxide. The hydrogen peroxide was then reacted with phenol and 4-aminophenazone in the presence of peroxidase to produce a p-quinone imine dye, which was read spectrophotometrically at 500 nm. Cholesterol concentration was then calculated against a standard curve. The entire assay was automated using a Biomek Automated Workstation.
(§3) Data presented in Table 1 below show comparative results among ovariectomized rats, rats treated with 17α-ethynyl estradiol (EE2; an orally available form of estrogen), and rats treated with certain compounds of the present invention. […] This uterine response to estrogen is well recognized in the art.
(§4) The data presented in Table 1 below reflects the response of 5 to 6 rats per treatment.

uterus = assay: Uterine weight in ovariectomized rats, 4-day oral dosing (Table 1); details: Rattus norvegicus, po, 96 h, OVX rats, daily for 4 days, read-out: Uterine Wt. (% inc. vs. OVX); for change in vivo at 1 mg/kg: 1 mg/kg oral; for change in vivo at 10 mg/kg: 10 mg/kg oral; for change in vivo at 25 mg/kg: 25 mg/kg oral; for change in vivo at 0.1 mg/kg: 0.1 mg/kg oral
Procedure: In the examples illustrating the methods, a post-menopausal model was used in which effects of different treatments upon circulating lipids were determined.
as §1, §2, §3, §4

[1] = test system: Uterine Eosinophil Peroxidase (EPO); assay: Uterine Eosinophil Peroxidase (EPO) Assay (Table 1); set-up: key to Uterine EPO (V. max): Vmax of absorbance increase at 450 nm, monitored over 1 min; details: OVX rats, daily for 4 days
From the text: as §1, §2
Uterine Eosinomhil Peroxidase (EPO) Assay. Uteri were kept at 4° C. until time of enzymatic analysis. The uteri were then homogenized in 50 volumes of 50 mM Tris buffer (pH-8.0) containing 0.005% Triton X-100. Upon addition of 0.01% hydrogen peroxide and 10 mM O-phenylenediamine (final concentrations) in Tris buffer, increase in absorbance was monitored for one minute at 450 nm. The presence of eosinophils in the uterus is an indication of estrogenic activity of a compound. The maximal velocity of a 15 second interval was determined over the initial, linear portion of the reaction curve.
As is expressed in the below data, estrogenicity also was assessed by evaluating the response of eosinophil infiltration into the uterus.
as §4

SMILES	inhibition in vivo at 1 mg/kg (Serum cholesterol) [%]	inhibition in vivo at 10 mg/kg (Serum cholesterol) [%]	inhibition in vivo at 25 mg/kg (Serum cholesterol) [%]	ED50 (Serum cholesterol) [mg/kg]	change in vivo at 1 mg/kg (uterus) [%]	change in vivo at 10 mg/kg (uterus) [%]	change in vivo at 25 mg/kg (uterus) [%]	Uterine EPO (V. max) ([1]; 1 mg/kg oral)	Uterine EPO (V. max) ([1]; 10 mg/kg oral)	Uterine EPO (V. max) ([1]; 25 mg/kg oral)	inhibition in vivo at 0.1 mg/kg (Serum cholesterol) [%]	change in vivo at 0.1 mg/kg (uterus) [%]	Uterine EPO (V. max) ([1]; 0.1 mg/kg oral)
COc1ccc(-c2ccc(C)nc2-c2ccc(OCCN(C)C)cc2)cc1 [Example 1, 2-[4-[2-(1-N,N-Dimethylamino)ethoxy]phenyl]-3-(4-methoxyphenyl)-6-methylpyridine]	15	14.9	22.2	> 1000	0.6	2.6	5.2	2.9	2.5	2.3			
COc1ccc(-c2ccc(C)nc2-c2ccc(OCCN3CCCC3)cc2)cc1 [Example 2, 2-[4-[2-(1-Pyrrolidinyl)ethoxy]phenyl]-3-(4-methoxyphenyl)-6-methylpyridine]	-23.6	-33.5	9.7	> 10	12.7	-12.5	19.5	6.6	5.9	59.8			
COc1ccc(-c2ccc(C)nc2-c2ccc(OCCN3CCOCC3)cc2)cc1 [Example 3, 2-[4-[2-(4-Morpholinyl)ethoxy]phenyl]-3-(4-methoxyphenyl)-6-methylpyridine]	4.5	1.4	-11.6	> 10	4.9	-6.1	-2.3	10.8	6	3.8			
COc1ccc(-c2ccc(-c3ccc(OC)cc3)c(-c3ccc(OCCN4CCCC4)cc3)n2)cc1 [Example 5, 2-[4-[2-(1-Pyrrolidinyl)ethoxy]phenyl]-3,6-bis(4-methoxyphenyl)pyridine]	14	23.5		> 10	-7.6	27.2		4.2	23.1		2.4	-6.5	4.5
COc1ccc(-c2ccc(C)nc2-c2ccc(OCCN3CCCCC3)cc2)cc1 [Example 7, 2-[4-[2-(1-Piperidinyl)ethoxy]phenyl]-3-(4-methoxyphenyl)-6-methylpyridine]			-1.2				-5.6			3.6	23.2		
Cc1ccc(-c2ccc(O)cc2)c(-c2ccc(OCCN(C)C)cc2)n1 [Example 8, 2-[4-[2-(N,N-Dimethylamino)ethoxy]phenyl]-3-(4-hydroxyphenyl)-6-methylpyridine]	15.7	1.5	46.4	26	-1.5	-1	41.6	5	6.7	58.6			
Cc1ccc(-c2ccc(O)cc2)c(-c2ccc(OCCN3CCCCC3)cc2)n1 [Example 10, 2-[4-[2-(1-Piperidinyl)ethoxy]phenyl]-3-(4-hydroxyphenyl)-6-methylpyridine]	8.4	1.7	17.9	> 10	3.4	7	47	4.4	3.4	6.8			
Cc1ccc(-c2ccc(O)cc2)c(-c2ccc(OCCN3CCOCC3)cc2)n1 [Example 11, 2-[4-[2-(4-Morpholinyl)ethoxy]phenyl]-3-(4-hydroxyphenyl)-6-methylpyridine]	16	18.2	-3.6	> 10	-0.8	27	5	4.8	4.9	4.4			
Oc1ccc(-c2ccc(-c3ccccc3)nc2-c2ccc(OCCN3CCCC3)cc2)cc1 [Example 13, 2-[4-[2-(1-Pyrrolidinyl)ethoxy]phenyl]-3-(4-hydroxyphenyl)-6-phenylpyridine]	53.8	36.8		< 1	54	38.8	35.5				1.8	23.8	4.5

Source: patent US5672609A, “Pyridine compounds, intermediates compositions and methods of use” (Eli Lilly and Company, priority 1996, dated 1997)
